Experimental data published in ChEMBL document CHEMBL1201862, “PubChem BioAssay data set” (2004).
Activity calls are given as the source filed them.

Columns and labels:
Type in all cases: functional
[1] = target: T1, High affinity choline transporter 1 (Homo sapiens, UniProt Q9GZV3); assay: CHT inhibitors, dose response, cell-based, 5-point CRC, membrane potential dye (AID 504840)
T1 sequence (Q9GZV3 whole entry): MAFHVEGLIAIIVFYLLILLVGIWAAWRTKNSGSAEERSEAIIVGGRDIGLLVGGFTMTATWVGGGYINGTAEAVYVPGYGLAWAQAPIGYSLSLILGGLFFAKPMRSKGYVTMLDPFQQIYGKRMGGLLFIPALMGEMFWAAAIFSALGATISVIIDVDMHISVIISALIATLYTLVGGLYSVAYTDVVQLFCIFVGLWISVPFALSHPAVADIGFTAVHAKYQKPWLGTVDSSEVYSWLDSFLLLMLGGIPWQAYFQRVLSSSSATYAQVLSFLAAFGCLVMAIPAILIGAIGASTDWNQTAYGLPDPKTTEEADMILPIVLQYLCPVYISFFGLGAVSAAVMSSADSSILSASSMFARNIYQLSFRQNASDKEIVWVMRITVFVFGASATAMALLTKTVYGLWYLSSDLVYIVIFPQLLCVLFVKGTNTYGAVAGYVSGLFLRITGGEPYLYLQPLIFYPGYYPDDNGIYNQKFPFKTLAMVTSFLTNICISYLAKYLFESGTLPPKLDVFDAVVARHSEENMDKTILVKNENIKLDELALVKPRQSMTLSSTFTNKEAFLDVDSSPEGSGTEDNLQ

[2] = target: T2, Rac GTPase-activating protein 1 (Homo sapiens, UniProt Q9H0H5); assay: MgcRacGAP GTPase-activating activity inhibitors, confirmation, biochemical, ADP Hunter fluorescence, primary and confirmatory (AID 624330)
T2 sequence (Q9H0H5 whole entry): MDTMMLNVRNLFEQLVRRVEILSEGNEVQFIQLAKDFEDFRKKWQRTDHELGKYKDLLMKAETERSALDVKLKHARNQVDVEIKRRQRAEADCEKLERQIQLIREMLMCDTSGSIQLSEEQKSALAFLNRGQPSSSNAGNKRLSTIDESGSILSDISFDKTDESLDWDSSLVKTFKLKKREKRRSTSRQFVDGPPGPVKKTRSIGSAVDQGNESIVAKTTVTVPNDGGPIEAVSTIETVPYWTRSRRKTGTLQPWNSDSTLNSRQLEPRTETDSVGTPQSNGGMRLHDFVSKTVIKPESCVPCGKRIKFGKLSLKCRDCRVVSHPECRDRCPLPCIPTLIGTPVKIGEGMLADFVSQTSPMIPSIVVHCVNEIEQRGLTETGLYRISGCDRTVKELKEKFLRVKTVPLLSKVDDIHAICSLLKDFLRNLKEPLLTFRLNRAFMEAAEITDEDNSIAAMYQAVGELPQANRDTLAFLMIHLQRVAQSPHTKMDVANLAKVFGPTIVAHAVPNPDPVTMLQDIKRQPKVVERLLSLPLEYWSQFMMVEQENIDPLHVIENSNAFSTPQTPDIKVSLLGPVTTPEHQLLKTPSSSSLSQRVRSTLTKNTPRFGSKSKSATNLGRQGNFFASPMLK

[3] = target: T1, High affinity choline transporter 1; assay: CHT inhibitors, dose response, cell-based, 10-point CRC, membrane potential dye (AID 588401);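 also: membrane potential dye fluorescence of choline-evoked depolarization via CHT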
[4] = HeLa cell cytotoxicity, dose response, cytotoxicity control for MgcRacGAP inhibitor project (AID 624300)
Vero = assay: West Nile virus antiviral activity, cell-based, CPE readout (AID 1621); settings: Chlorocebus sabaeus
[5] = target: T3, Apoptotic protease-activating factor 1 (Homo sapiens, UniProt O14727); assay: SAR analysis of small molecule Activators of Apaf-1 in a Fluorescent assay - set 2.; settings: read-out: EC50_Mean
T3 sequence (O14727 whole entry): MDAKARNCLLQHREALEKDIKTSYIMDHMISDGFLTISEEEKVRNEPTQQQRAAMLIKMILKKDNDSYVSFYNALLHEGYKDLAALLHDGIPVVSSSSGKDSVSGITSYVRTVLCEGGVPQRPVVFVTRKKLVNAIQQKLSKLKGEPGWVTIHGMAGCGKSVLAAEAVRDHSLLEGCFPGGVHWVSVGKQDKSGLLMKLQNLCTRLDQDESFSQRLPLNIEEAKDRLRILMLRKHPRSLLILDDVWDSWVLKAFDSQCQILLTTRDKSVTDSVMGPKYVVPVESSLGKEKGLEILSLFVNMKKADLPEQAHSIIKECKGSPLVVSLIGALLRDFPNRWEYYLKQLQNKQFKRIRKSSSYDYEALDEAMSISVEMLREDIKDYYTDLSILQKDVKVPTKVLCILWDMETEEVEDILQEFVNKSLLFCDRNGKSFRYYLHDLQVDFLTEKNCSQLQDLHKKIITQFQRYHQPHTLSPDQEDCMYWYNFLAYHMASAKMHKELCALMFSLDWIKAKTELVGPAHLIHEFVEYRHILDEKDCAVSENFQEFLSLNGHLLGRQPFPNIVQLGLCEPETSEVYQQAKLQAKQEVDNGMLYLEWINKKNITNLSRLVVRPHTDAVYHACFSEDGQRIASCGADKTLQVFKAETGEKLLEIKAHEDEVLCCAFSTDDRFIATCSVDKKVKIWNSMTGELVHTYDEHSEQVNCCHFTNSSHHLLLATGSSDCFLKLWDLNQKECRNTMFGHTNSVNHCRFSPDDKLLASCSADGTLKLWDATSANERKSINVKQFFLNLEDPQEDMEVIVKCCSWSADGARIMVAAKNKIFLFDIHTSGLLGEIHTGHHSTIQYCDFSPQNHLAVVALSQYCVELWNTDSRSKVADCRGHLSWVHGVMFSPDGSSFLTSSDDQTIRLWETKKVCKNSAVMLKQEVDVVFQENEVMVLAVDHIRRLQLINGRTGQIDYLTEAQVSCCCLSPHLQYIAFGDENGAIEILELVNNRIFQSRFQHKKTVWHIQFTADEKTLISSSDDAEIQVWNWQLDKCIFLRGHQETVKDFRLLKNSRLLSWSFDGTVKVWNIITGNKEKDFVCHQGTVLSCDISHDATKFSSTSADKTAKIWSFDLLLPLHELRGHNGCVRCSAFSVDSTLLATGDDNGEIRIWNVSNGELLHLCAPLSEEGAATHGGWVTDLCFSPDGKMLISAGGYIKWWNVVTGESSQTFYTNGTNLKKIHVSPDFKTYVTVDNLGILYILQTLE

[6] = SAR analysis of small molecule activators of Apaf-1 using a LZ-Caspase-9/Caspase-3 Fluorescent Selectivity assay - Set 2.; settings: read-out: EC50_Mean

CCN(CC)CCCC(C)NC(=O)c1c(NC(=O)c2ccccc2)sc2c1CCCC2 (configuration not stated)
IC50 [1]: 2.41 µM (active)
IC50 [2]: 144 µM (active)
IC50 [3]: 3.36 µM (active)
CC50 [4]: 100 µM (active)
IC50 (Vero): 21.4 µM (active)

COc1ccccc1C1=NOC(C(=O)O)C1 (configuration not stated)
EC50 [5]: > 100 µM (inactive)
EC50 [6]: > 100 µM (inactive)
